According to patent publication US20040019429A1, “Methods and systems for analyzing complex biological systems” (priority 2001, published 2004):
“Also recorded” adds a separate entry of the source.

Legend:
[1] = system: Arabidopsis thaliana plants; experiment: SOA1 phenotypic analysis of herbicide-treated plants (MIC, Tmic, leaf traits, symptom class); assay type: in vivo; details: for leafCurling (Dev.) / leafTwisting (Dev.) / leafWidth (Dev.) / matureLeafAnthocyanins (Dev.) / matureLeafChlorosis (Dev.) / matureLeafNecrosis (Dev.) / newLeafAnthocyanins (Dev.) / newLeafChlorosis (Dev.) / newLeafNecrosis (Dev.) / pointedLeaves (Dev.): numeric value standardized to mock treated plants; for leafCurling (Dev.) / leafTwisting (Dev.) / leafWidth (Dev.) / matureLeafAnthocyanins (Dev.) / matureLeafChlorosis (Dev.) / matureLeafNecrosis (Dev.) / newLeafAnthocyanins (Dev.) / newLeafChlorosis (Dev.) / newLeafNecrosis (Dev.) / pointedLeaves (Dev.) / tMic (Dev.): SOA1; for tMic (Dev.): score for time to full range of symptoms at the MIC; for Characteristic symptoms of treated plants (in words): SOA1 phenotypic analysis
Arabidopsis thaliana [2] = experiment: MOA1 biochemical (metabolite) profiling by LC-MS and GC-MS; details: 20 minutes and 1 hour after spraying
Arabidopsis thaliana [3] = experiment: MOA1 phenotypic profiling of sprayed plants (eleven phenotypic characteristics); assay type: in vivo; details: hierarchical cluster analysis of eleven phenotypic characteristics
Magnaporthe grisea = assay type: cell-based
Arabidopsis thaliana [4] = experiment: MOA1 gene expression profiling (arrays of 22,000 Arabidopsis genes); details: for No. of Lethal Genes Altered: altered genes identified as essential for plant growth in internal database; for Gene expression perturbation (in words): MOA1, one-hour time point
[5] = system: Saccharomyces cerevisiae wild type strain BY4743; experiment: AF1 yeast metabolite analysis by GC-MS and LC-MS after antifungal drug treatment; assay type: cell-based; details: for Fold Change, phosphoenolpyruvate: metabolite phosphoenolpyruvate; for Fold Change, thymine: metabolite thymine; for Fold Change, urocanic acid: metabolite urocanic acid; for Fold Change, zeatin: metabolite zeatin
[6] = 1 hr, p < 0.5, number of genes of 22,000

O=C(O)COc1ccc(Cl)cc1Cl [2,4-D]
leafCurling (Dev.) [1]: 1 | leafTwisting (Dev.) [1]: 2 | leafWidth (Dev.) [1]: −1 | matureLeafAnthocyanins (Dev.) [1]: 1 | matureLeafChlorosis (Dev.) [1]: 2 | matureLeafNecrosis (Dev.) [1]: 0 | newLeafAnthocyanins (Dev.) [1]: 0 | newLeafChlorosis (Dev.) [1]: 1 | newLeafNecrosis (Dev.) [1]: 0 | pointedLeaves (Dev.) [1]: 0 | tMic (Dev.) [1]: 2 | Symptom Class ([1]; three-week-old Arabidopsis plants treated with herbicide): 5

CNc1cnn(-c2cccc(C(F)(F)F)c2)c(=O)c1Cl [Norfluazon, Norflurazon]
Regulated metabolites relative to control (in words) (Arabidopsis thaliana [2]): Only a few, if any, stress-related metabolites were observed

O=C(O)c1cc(Oc2ccc(C(F)(F)F)cc2Cl)ccc1[N+](=O)[O-] [Acifluorfen]
Characteristic symptoms of treated plants (in words) [1]: Necrotic leaf flecks

CSc1nnc(C(C)(C)C)c(=O)n1N [Metribuzin]
Characteristic symptoms of treated plants (in words) [1]: rapid and widespread leaf necrosis

Nc1nc[nH]n1 [Amitrole]
Phenotype and phenotypic clustering (in words) (Arabidopsis thaliana [3]): exhibited chlorosis and not true bleaching | Characteristic symptoms of treated plants (in words) [1]: leaf bleaching and leaf enlargement

COC(=O)c1cc(Oc2ccc(Cl)cc2Cl)ccc1[N+](=O)[O-] [Bifenox]
Characteristic symptoms of treated plants (in words) [1]: Necrotic leaf flecks

CC(C)C1(C)N=C(c2ncccc2C(=O)O)NC1=O (centres unmarked) [Imazapyr]
Regulated metabolites relative to control (in words) (Arabidopsis thaliana [2]): Only a few, if any, stress-related metabolites were observed | Characteristic symptoms of treated plants (in words) [1]: anthocyanin accumulation in the older leaves accompanied by chlorosis of the newly emerging leaves

O=C(O)CNCP(=O)(O)O [Glyphosate]
Regulated metabolites relative to control (in words) (Arabidopsis thaliana [2]): (tyrosine), decreased relative to the control after one hour | Growth of M. grisea on various nitrogen sources, Tier 4 (Magnaporthe grisea): inhibited growth of M. grisea when nitrate, nitrite, or glutamate was provided as the sole nitrogen source; also recorded: Little growth defect was observed when ammonium or glutamine was provided | Growth results for Tiers 3 and 4 (Magnaporthe grisea; 250 μg/ml): nearly identical as compared to Unknown 4 | Growth inhibition of M. grisea and its remediation (Magnaporthe grisea; 1.0 mg/ml): remediated by inclusion of aromatic amino acids to the media | Characteristic symptoms of treated plants (in words) [1]: anthocyanin accumulation in the older leaves accompanied by chlorosis of the newly emerging leaves | leafCurling (Dev.) [1]: 0 | leafTwisting (Dev.) [1]: 0 | leafWidth (Dev.) [1]: 0 | matureLeafAnthocyanins (Dev.) [1]: 3 | matureLeafChlorosis (Dev.) [1]: 1 | matureLeafNecrosis (Dev.) [1]: 3 | newLeafAnthocyanins (Dev.) [1]: 1 | newLeafChlorosis (Dev.) [1]: 2 | newLeafNecrosis (Dev.) [1]: 0 | pointedLeaves (Dev.) [1]: 1 | tMic (Dev.) [1]: 2

CP(=O)(O)CCC(N)C(=O)O (centres unmarked) [Glufosinate]
Regulated metabolites relative to control (in words) (Arabidopsis thaliana [2]): Only a few, if any, stress-related metabolites were observed | Growth of M. grisea on various nitrogen sources, Tier 4 (Magnaporthe grisea): only able to utilize glutamine and glutamate as nitrogen sources | Characteristic symptoms of treated plants (in words) [1]: Chlorosis and leaf curling | leafCurling (Dev.) [1]: 2 | leafTwisting (Dev.) [1]: 1 | leafWidth (Dev.) [1]: −2 | matureLeafAnthocyanins (Dev.) [1]: 0 | matureLeafChlorosis (Dev.) [1]: 3 | matureLeafNecrosis (Dev.) [1]: 0 | newLeafAnthocyanins (Dev.) [1]: 0 | newLeafChlorosis (Dev.) [1]: 3 | newLeafNecrosis (Dev.) [1]: 0 | pointedLeaves (Dev.) [1]: 1 | tMic (Dev.) [1]: 1 | Regulated Genes Following Herbicide Treatment: Down (Arabidopsis thaliana [4]; [6]): 54 | No. of Lethal Genes Altered (Arabidopsis thaliana [4]; 1 hr): 10

O=C(O)c1ccccc1C(=O)Nc1cccc2ccccc12 [Naptalam]
Regulated Genes Following Herbicide Treatment: Down (Arabidopsis thaliana [4]; [6]): 47 | Regulated Genes Following Herbicide Treatment: Up (Arabidopsis thaliana [4]; [6]): 50 | Gene expression perturbation (in words) (Arabidopsis thaliana [4]): fewest gene expression perturbations | No. of Lethal Genes Altered (Arabidopsis thaliana [4]; 1 hr): 3

CN(C)C(=O)Nc1ccc(Cl)c(Cl)c1 [Diuron]
Characteristic symptoms of treated plants (in words) [1]: rapid and widespread leaf necrosis | leafCurling (Dev.) [1]: 1 | leafTwisting (Dev.) [1]: 0 | leafWidth (Dev.) [1]: −2 | matureLeafAnthocyanins (Dev.) [1]: 0 | matureLeafChlorosis (Dev.) [1]: 2 | matureLeafNecrosis (Dev.) [1]: 4 | newLeafAnthocyanins (Dev.) [1]: newLeafAnthocyanins 0 | newLeafChlorosis (Dev.) [1]: 2 | newLeafNecrosis (Dev.) [1]: 4 | pointedLeaves (Dev.) [1]: 1 | tMic (Dev.) [1]: 1

C[n+]1ccc(-c2cc[n+](C)cc2)cc1 [Paraquat]
Characteristic symptoms of treated plants (in words) [1]: rapid and widespread leaf necrosis | leafCurling (Dev.) [1]: 2 | leafTwisting (Dev.) [1]: 0 | leafWidth (Dev.) [1]: −1 | matureLeafAnthocyanins (Dev.) [1]: 0 | matureLeafChlorosis (Dev.) [1]: 1 | matureLeafNecrosis (Dev.) [1]: 4 | newLeafAnthocyanins (Dev.) [1]: 0 | newLeafChlorosis (Dev.) [1]: 1 | newLeafNecrosis (Dev.) [1]: 4 | pointedLeaves (Dev.) [1]: 1 | tMic (Dev.) [1]: 2

CCc1cnc(C2=NC(C)(C(C)C)C(=O)N2)c(C(=O)O)c1 (centres unmarked) [Imazethapyr]
Characteristic symptoms of treated plants (in words) [1]: anthocyanin accumulation in the older leaves accompanied by chlorosis of the newly emerging leaves

COC(=O)NS(=O)(=O)c1ccc(N)cc1 [Asulam]
Gene expression perturbation (in words) (Arabidopsis thaliana [4]): fewest gene expression perturbations | No. of Lethal Genes Altered (Arabidopsis thaliana [4]; 1 hr): 5

COc1nc(C)nc(NC(=O)NS(=O)(=O)c2ccccc2Cl)n1 [Chlorsulfuron]
Characteristic symptoms of treated plants (in words) [1]: anthocyanin accumulation in the older leaves accompanied by chlorosis of the newly emerging leaves | No. of Lethal Genes Altered (Arabidopsis thaliana [4]; 1 hr): 8

CC[C@@H]([C@H](C)O)n1ncn(-c2ccc(N3CCN(c4ccc(OC[C@@H]5CO[C@@](Cn6cncn6)(c6ccc(F)cc6F)C5)cc4)CC3)cc2)c1=O [Posaconazote]
Fold Change, porphobilinogen ([5]; metabolite porphobilinogen, platform nLC, p-Value 1): 0

CC(C)N1C(=O)c2ccccc2NS1(=O)=O [Bentazon]
Characteristic symptoms of treated plants (in words) [1]: rapid and widespread leaf necrosis

CC(=O)N1CCN(c2ccc(OCC3COC(Cn4ccnc4)(c4ccc(Cl)cc4Cl)O3)cc2)CC1 (centres unmarked) [Ketoconazole]
# Compounds perturbed by treatment ([5]; P < 0.1, 2X MIC, two hours): 15

CC[C@@H]([C@H](C)O)n1ncn(-c2ccc(N3CCN(c4ccc(OC[C@@H]5CO[C@@](Cn6cncn6)(c6ccc(F)cc6F)C5)cc4)CC3)cc2)c1=O [Posaconazole]
Fold Change, NacetylDglucosamine ([5]; metabolite NacetylDglucosamine, platform nLC, p-Value 1): 0 | Fold Change, NacetylLglucosamine ([5]; metabolite NacetylLglucosamine, platform pLC, p-Value 1): 0 | Fold Change, NacetylLglutamate ([5]; metabolite NacetylLglutamate, platform pLC, p-Value 1): 0 | Fold Change, NacetylLornithine ([5]; metabolite NacetylLornithine, platform nLC, p-Value 1): 0 | Fold Change, niacinamide ([5]; metabolite niacinamide, platform pLC, p-Value 1): 0 | Fold Change, nopaline ([5]; metabolite nopaline, platform pLC, p-Value 1): 0 | Fold Change, ornithine3 ([5]; metabolite ornithine3, platform GC, p-Value 0.965157424): 0.041 | Fold Change, orotic acid ([5]; metabolite orotic acid, platform nLC, p-Value 1): 0 | Fold Change, phenylpyruvic acid ([5]; metabolite phenylpyruvic acid, platform nLC, p-Value 1): 0 | Fold Change, phosphoenolpyruvate ([5]; platform LC, p-Value 1): 0 | Fold Change, phosphoenolpyruvate ([5]; platform nLC, p-Value 1): 0 | Fold Change, pinitol ([5]; metabolite pinitol, platform nLC, p-Value 1): 0 | Fold Change, progesterone ([5]; metabolite progesterone, platform pLC, p-Value 1): 0 | Fold Change, retinoic acid ([5]; metabolite retinoic acid, platform nLC, p-Value 1): 0 | Fold Change, riboflavin ([5]; metabolite riboflavin, platform pLC, p-Value 1): 0 | Fold Change, salicylic/HObenzoic ([5]; metabolite salicylic/HObenzoic, platform nLC, p-Value 1): 0 | Fold Change, shikimic acid ([5]; metabolite shikimic acid, platform nLC, p-Value 1): 0 | Fold Change, sinapinic acid ([5]; metabolite sinapinic acid, platform nLC, p-Value 1): 0 | Fold Change, sugar-phosphate ([5]; metabolite sugar-phosphate, platform pLC, p-Value 1): 0 | Fold Change, thiamine ([5]; metabolite thiamine, platform pLC, p-Value 1): 0 | Fold Change, thymine ([5]; platform nLC, p-Value 1): 0 | Fold Change, thymine ([5]; platform pLC, p-Value 1): 0 | Fold Change, tryptophan ([5]; metabolite tryptophan, platform pLC, p-Value 1): 0 | Fold Change, uric acid ([5]; metabolite uric acid, platform pLC, p-Value 1): 0 | Fold Change, urocanic acid ([5]; platform nLC, p-Value 1): 0 | Fold Change, urocanic acid ([5]; platform pLC, p-Value 1): 0 | Fold Change, xanthosine(diH2O) ([5]; metabolite xanthosine(diH2O), platform pLC, p-Value 1): 0 | Fold Change, xanthosineDiH2O ([5]; metabolite xanthosineDiH2O, platform nLC, p-Value 1): 0 | Fold Change, zeatin ([5]; platform nLC, p-Value 1): 0 | Fold Change, zeatin ([5]; platform pLC, p-Value 1): 0

OC(Cn1cncn1)(Cn1cncn1)c1ccc(F)cc1F [Fluconazole]
Fold Change, abscisic acid ([5]; platform LC): 0 | Fold Change, adenosine ([5]; platform LC): 0

c1cc[n+]2c(c1)-c1cccc[n+]1CC2 [Diquat]
Characteristic symptoms of treated plants (in words) [1]: rapid and widespread leaf necrosis | leafCurling (Dev.) [1]: 2 | leafTwisting (Dev.) [1]: 0 | leafWidth (Dev.) [1]: −2 | matureLeafAnthocyanins (Dev.) [1]: 0 | matureLeafChlorosis (Dev.) [1]: 1 | matureLeafNecrosis (Dev.) [1]: 4 | newLeafAnthocyanins (Dev.) [1]: 0 | newLeafChlorosis (Dev.) [1]: 1 | newLeafNecrosis (Dev.) [1]: 4 | pointedLeaves (Dev.) [1]: 1 | tMic (Dev.) [1]: 2

CCNc1nc(Cl)nc(NC(C)C)n1 [Atrazine]
Characteristic symptoms of treated plants (in words) [1]: rapid and widespread leaf necrosis

CS(=O)(=O)c1cc(C(F)(F)F)ccc1C(=O)c1cnoc1C1CC1 [Isoxaflutole]
Regulated metabolites relative to control (in words) (Arabidopsis thaliana [2]): both tyrosine and phenylalanine were up-regulated relative to the control; also recorded: Alpha-tocopherol was detected, but the levels were not significantly changed relative to the control at the early time points; also recorded: (tyrosine and phenylalanine), began to accumulate relative to the control after one hour | Growth of M. grisea at a sub-inhibitory concentration (minimal, supplemented, minimal plus tyrosine media) (Magnaporthe grisea; concentration insufficient to inhibit growth): growth was inhibited in minimal plus tyrosine media, while growth in minimal media was unaffected | Gene expression perturbation (in words) (Arabidopsis thaliana [4]): alterations in the expression of genes involved in the homogentisate biosynthetic pathway were not observed | No. of Lethal Genes Altered (Arabidopsis thaliana [4]; 1 hr): 15
